# Laboratory results reported in PubChem BioAssay (NCI).
# Where “and” joins values, the source holds several entries; their conditions need not be identical. Identical values can stand only once.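 Method: 48-hour compound exposure of cells in 96-well plates, five concentrations, linear interpolation of endpoints. The concentration for 50% growth inhibition is given as GI50. TGI: concentration producing complete growth inhibition.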
# How the values were obtained:
# Test in all cases: NCI anticancer screen, dose series, 48 h
# HCT-15 colon = system: HCT-15 colon
# SF-539 CNS = system: SF-539 CNS
# MDA-MB-231 breast = system: MDA-MB-231 breast
# UO-31 renal = system: UO-31 renal
# HS 578T breast = system: HS 578T breast
# RPMI-8226 leukemia = system: RPMI-8226 leukemia
# A498 renal = system: A498 renal
# SF-295 CNS = system: SF-295 CNS
# UACC-62 melanoma = system: UACC-62 melanoma
# SNB-75 CNS = system: SNB-75 CNS
Structure (SMILES),GI50 (HCT-15 colon),TGI (HCT-15 colon),GI50 (SF-539 CNS),TGI (SF-539 CNS),GI50 (MDA-MB-231 breast),TGI (MDA-MB-231 breast),GI50 (UO-31 renal),TGI (UO-31 renal),GI50 (HS 578T breast),TGI (HS 578T breast),GI50 (RPMI-8226 leukemia),TGI (RPMI-8226 leukemia),GI50 (A498 renal),TGI (A498 renal),GI50 (SF-295 CNS),TGI (SF-295 CNS),GI50 (UACC-62 melanoma),TGI (UACC-62 melanoma),GI50 (SNB-75 CNS),TGI (SNB-75 CNS)
CC/C=C\C/C=C\C[C@H](O)C/C=C1/C(=O)C=C[C@@H]1C/C=C\CCCC(=O)O,3.47 µM,15.6 µM,3.85 µM,15.2 µM,7.94 µM,44.4 µM,5.99 µM,20.3 µM,28.4 µM,> 100 µM,2.63 µM,12.1 µM,16 µM,31.1 µM,7.86 µM,22.4 µM,1.94 µM,8.02 µM,10.4 µM,28.6 µM
O=C(Nc1ccc(CN2CCOCC2)cc1)c1[nH]ncc1Nc1ncnc2sccc12,0.277 µM,16.7 µM,0.141 µM,1.15 µM,0.854 µM,> 100 µM,,,0.14 µM,4.81 µM,0.517 µM,4.33 µM,0.0363 µM,0.461 µM,0.484 µM,16.5 µM,0.707 µM,5.7 µM,0.0174 µM,2.04 µM
C=CC(C)(O)/C=C/C=C(\C)C(CC1OC1(C)C)OC(=O)/C(C)=C\C (configuration not stated),,> 100 µM,,> 100 µM,,> 100 µM,,> 100 µM,,> 100 µM,,> 100 µM,,> 100 µM,,> 100 µM,,> 100 µM,,> 100 µM
COc1ccc2c(c1)C(=O)c1c-2c(Nc2ccc(C(C)=O)cc2)nc2ccccc12,> 100 µM,> 100 µM,15.5 µM,44.5 µM,11.4 µM,29.5 µM,> 100 µM,> 100 µM,8.39 µM,> 100 µM,89.5 µM,> 100 µM,35.2 µM,> 100 µM,33.8 µM,> 100 µM,21.9 µM,> 100 µM,26.1 µM,> 100 µM
COc1cc2nccc(Oc3ccc(NC(=O)C4(C(=O)Nc5ccc(F)cc5)CC4)cc3)c2cc1Oc1ccc(N)cn1,3.04 µM,> 100 µM,0.854 µM,4.84 µM,2.44 µM,8.42 µM,2.36 µM,9.32 µM,1.65 µM,7.39 µM,3.99 µM,78.6 µM,1.6 µM,4.33 µM,0.254 µM,4.28 µM,1.33 µM,7.03 µM,1.41 µM,4.21 µM
COc1ccc2c(c1)C(=O)C(=O)c1cc(O)c(OC)c(OC)c1-2,1.73 µM,1.78 µM and 3.53 µM,,3.35 µM,2.1 µM,1.91 µM and 3.87 µM,,1.7 µM,2.79 µM,2.78 µM and 8.57 µM,1.56 µM,2.67 µM and 3.81 µM,5.07 µM,10.5 µM and 12.9 µM,1.77 µM,1.65 µM and 3.15 µM,1.76 µM,1.54 µM and 3.16 µM,1.69 µM,2.85 µM and 3.06 µM
N#Cc1ccc(N2Cc3ccccc3OC3=C2C(=O)c2c(O)ccc(O)c2C3=O)cc1,0.174 µM,0.618 µM,0.564 µM,1.38 µM,0.242 µM,0.994 µM,0.166 µM,0.357 µM,1.16 µM,7.07 µM,0.261 µM,1.31 µM,1.79 µM,4.13 µM,2.12 µM,6.96 µM,0.24 µM,0.667 µM,0.66 µM,2.68 µM
CN(N=O)C(=O)N[C@@H](C=O)[C@@H](O)[C@H](O)[C@H](O)CO,> 750 µM,666 µM and > 750 µM,> 750 µM,> 750 µM,,> 750 µM,> 750 µM,> 750 µM,,> 750 µM,> 750 µM,612 µM and > 750 µM,,> 628 µM,> 750 µM,621 µM and > 750 µM,> 750 µM,> 750 µM,696 µM,> 750 µM
C/C1=C/C2=CC(C)C[C@@H]2C(=O)[C@]2(C)C(=O)CC(C)(C)[C@H]2CC1=O (some centres not stated),,> 50 µM,,> 50 µM,,> 50 µM,,> 50 µM,,> 50 µM,,> 50 µM,,> 50 µM,,> 50 µM,,> 50 µM,,> 50 µM
O=C(Nc1ccc(Cl)cc1F)c1cc(I)ccc1O,2.41 µM,10.2 µM,1.1 µM,5.78 µM,1.67 µM,7.49 µM,0.385 µM,3.18 µM,1.14 µM,7.29 µM,0.737 µM,5.01 µM,0.269 µM,0.846 µM,1.89 µM,3.75 µM,0.448 µM,2.19 µM,0.187 µM,2.82 µM
CN1CCN(c2ccc3nc(-c4c(N)c5c(F)cccc5[nH]c4=O)[nH]c3c2)CC1,0.495 µM and 0.419 µM and 0.485 µM,5.43 µM and > 7.05 µM and 7.76 µM,0.566 µM and 0.338 µM and 0.487 µM,1.96 µM and 1.21 µM and 1.75 µM,1.32 µM and 1.14 µM and 2.05 µM,5 µM and > 4.19 µM and 8.57 µM,0.347 µM and 0.224 µM and 0.232 µM,1.91 µM and > 2.8 µM and 1.54 µM,0.791 µM and 0.286 µM and 0.974 µM,5.77 µM and > 2.37 µM and 9.75 µM,1.17 µM and 0.909 µM and 1.57 µM,3.74 µM and > 2.77 µM and 4.53 µM,0.224 µM and 0.144 µM and 0.135 µM,,2.41 µM and 1.09 µM and 3.14 µM,8.1 µM and > 6.69 µM and 8.95 µM,1.19 µM and 1.28 µM and 2.13 µM,6.05 µM and > 2.9 µM and 10 µM,0.695 µM and 0.399 µM and 0.994 µM,2.64 µM and 8.04 µM and 5.68 µM
CC(C)(C#N)c1cc(F)cc(C(=O)Nc2cc(Nc3ncccc3-c3ncnc4nc[nH]c34)ccc2F)c1,3.59 µM,> 10 µM,0.527 µM,5.65 µM,0.306 µM,4.8 µM,0.287 µM,3.64 µM,1.41 µM,> 10 µM,1.92 µM,> 10 µM,0.2 µM,1.09 µM,3.74 µM,> 10 µM,0.0841 µM,> 10 µM,3.31 µM,> 10 µM
CC(=O)O[C@H](C[C@H](C(C)C)N(C)C(=O)[C@@H](NC(=O)[C@H]1CCCCN1C)C(C)C)c1nc(C(=O)N[C@@H](Cc2ccccc2)C[C@H](C)C(=O)O)c(C(C)C)s1,0.0101 µM,> 33.3 µM,< 0.00333 µM,0.00391 µM,< 0.00333 µM,> 15.5 µM,0.0161 µM,> 33.3 µM,< 0.00333 µM,3.08 µM,< 0.00333 µM,> 22.6 µM,< 0.00333 µM,< 0.00333 µM,< 0.00333 µM,0.297 µM,< 0.00333 µM,> 33.3 µM,< 0.00333 µM,29.1 µM
O=C(Nc1ccc(Oc2ccc3nc(NC(=O)c4ccccc4)[nH]c3c2)cc1)Nc1cc(C(F)(F)F)ccc1F,2.07 µM,> 25 µM,1.81 µM,18.5 µM,2.05 µM,> 22.9 µM,1.31 µM,15.6 µM,1.07 µM,11.6 µM,0.792 µM,3.86 µM,2.57 µM,> 25 µM,0.71 µM,4.49 µM,0.818 µM,4.01 µM,1.3 µM,10 µM
CCOC(=O)C1=C(C)NC2SC(=O)/C(=C\c3ccccc3O)N2C1c1ccccc1 (configuration not stated),30.5 µM,> 100 µM,35.5 µM,> 100 µM,33.8 µM,88.4 µM,21.9 µM,66.8 µM,17.4 µM,50.2 µM,18.6 µM,53.6 µM,11.1 µM,33.9 µM,27.2 µM,> 100 µM,18 µM,41.8 µM,20.4 µM,70.8 µM
COC1CCC(O)C(/C=C/[N+](=O)[O-])C1 (configuration not stated),,4.69 µM,,16.6 µM,,18.1 µM,,,,17.2 µM,,4.2 µM,,14.2 µM,,23.9 µM,,19.3 µM,,21.5 µM
COc1cnc2c(c1)C(=O)c1c-2n(CCCN2CCC(O)CC2)c(=O)c2cc(F)ccc12,,,0.295 µM,1.14 µM,0.485 µM,2.1 µM,0.135 µM,0.619 µM,1.67 µM,52.4 µM,0.109 µM,0.63 µM,0.198 µM,1.23 µM,,,0.24 µM,0.918 µM,0.252 µM,2.59 µM
c1ccc(-c2cc(C3CO3)c3ccccc3n2)cc1 (configuration not stated),,40.7 µM,,56.7 µM,,51.7 µM,,3.51 µM,,83.9 µM,,58.1 µM,,39.8 µM,,> 100 µM,,33.7 µM,,62.6 µM
CN1CCN(Cc2ccc(NC(=O)c3cncc(C#Cc4cncc5ncccc45)c3)cc2C(F)(F)F)CC1,3.9 µM,14.7 µM,0.829 µM,2.96 µM,1.07 µM,3.05 µM,1.25 µM,6.35 µM,1.36 µM,7.93 µM,3.59 µM,22.2 µM,0.323 µM,3.43 µM,3.72 µM,15.8 µM,1.67 µM,9.52 µM,5.83 µM,18.8 µM
Cc1ccc(Nc2n[nH]c(=S)s2)cc1,,> 100 µM,,> 100 µM,,> 100 µM,,> 100 µM,,> 100 µM,,> 100 µM,,> 100 µM,,> 100 µM,,> 100 µM,,> 100 µM
Cc1ccc(C)c(NC(=O)NCc2ccc(Cl)cc2)c1,,> 100 µM,,> 100 µM,,> 92 µM,,> 100 µM,,> 100 µM,,> 100 µM,,88.4 µM,,> 100 µM,,> 100 µM,,6.26 µM
O=C1c2ccccc2C(=Cc2ccccc2)c2ccccc21,2.16 µM,21.8 µM,3.57 µM,11.9 µM,2.78 µM,35.9 µM,2.1 µM,10.2 µM,3.9 µM,> 100 µM,3 µM,14.6 µM,2.3 µM,9.52 µM,2.59 µM,13.6 µM,1.68 µM,10.3 µM,2.34 µM,7.45 µM
CCCC[N+](CCCC)=c1ccc2nc3c(C)cc(N(CC)CC)cc3sc-2c1,,,0.192 µM,1.14 µM,0.247 µM,0.849 µM,0.134 µM,0.804 µM,0.341 µM,2.29 µM,0.0571 µM,1.58 µM,0.236 µM,4.43 µM,,,0.29 µM,1.77 µM,0.229 µM,1.1 µM
CCN1C(=O)NC(=O)C(C)(N2C(=O)c3c(F)c(F)c(F)c(F)c3C2=O)C1=O (configuration not stated),2.86 µM,11.1 µM,2.89 µM,8.02 µM,2.66 µM,9.13 µM,2.39 µM,6.98 µM,3.95 µM,25.1 µM,1.65 µM,6.53 µM,17.7 µM,32.9 µM,9.67 µM,23.9 µM,2.75 µM,9.57 µM,2.96 µM,11.1 µM
Cc1cnc(/C=N\NC(N)=S)c2cccc(N)c12,3.59 µM,> 100 µM,0.596 µM,3.7 µM and > 27.7 µM,3.2 µM,> 100 µM,1.88 µM,10.3 µM and 4.4 µM,> 58 µM,> 100 µM,2.1 µM,> 100 µM,2.04 µM,> 100 µM,2.36 µM,> 100 µM,1.13 µM,9.26 µM and 6.67 µM,1.35 µM,> 27 µM and 9.48 µM
O=P(NC12CC3CC(CC(C3)C1)C2)(N1CC1)N1CC1,,> 100 µM,,75.5 µM,,> 100 µM,,> 100 µM,,> 100 µM,,> 100 µM,,> 100 µM,,> 100 µM,,> 72.2 µM,,> 100 µM
COc1ccc(C2=NN(C(=O)c3cc(OC)c(OC)c(OC)c3)C(c3ccc(Cl)cc3)C2)cc1OC (configuration not stated),1.79 µM,> 100 µM,2.06 µM,> 82.8 µM,2.27 µM,> 68.3 µM,1.11 µM,41.8 µM,3.59 µM,> 42.4 µM,0.535 µM,> 100 µM,0.608 µM,8.3 µM,0.565 µM,> 100 µM,0.549 µM,15.5 µM,0.746 µM,15.2 µM
CN(C)c1ccc(/C=C2\N=C(c3ccc([N+](=O)[O-])cc3)OC2=O)cc1,,45.4 µM,,> 100 µM,,> 100 µM,,,,> 100 µM,,> 100 µM,,> 100 µM,,> 100 µM,,> 100 µM,,> 100 µM
